In ChEMBL document CHEMBL4613212, “Insights of synthetic analogues of anti-leprosy agents” (Bioorg Med Chem, 2019):
In brackets after ≈: the same amount, converted by molar mass. Activity calls are given as the source filed them. The calls are words filed in the database; no cut-off is given here.

Key:
Format in all cases: functional
[1] = system: Mycobacterium tuberculosis; assay: Antimycobacterial activity against Mycobacterium tuberculosis H37Rv by BACTEC radiometric growth assay
[2] = system: Mycolicibacterium smegmatis; assay: Antimycobacterial activity against DDS sensitive Mycobacterium smegmatis ATCC 607 […]
[3] = system: Mycolicibacterium smegmatis; assay: Antimycobacterial activity against DDS resistant Mycobacterium smegmatis ATCC 607 […]
[4] = system: Mycobacterium tuberculosis; assay: Antitubercular activity against Mycobacterium tuberculosis infected in mouse assessed as reduction in microbial load at 2 to 3 mg ip, pretreated for 48 to 72 hrs followed by microbial infection and subsequent compound dosing at 48 to 72 hrs post-infection measured 24 to 32 days post-infection relative to control; parameters: scale not given: the % may be the effect or the level left
[5] = system: Mycolicibacterium smegmatis; assay: Antimicrobial activity against Mycobacterium smegmatis ATCC 607
[6] = system: Mycobacterium tuberculosis; assay: Antitubercular activity against Mycobacterium tuberculosis H37Rv ATCC 27294 assessed as growth inhibition at 6.25 ug/ml by microplate alamar blue assay relative to control

CCCCCCCCC[S@+]([O-])CC(N)=O
MIC [1]: 25 µg/mL (≈ 107 µM)

CCCCNc1ccc(S(=O)(=O)c2ccc(N)cc2)cc1
MIC [2]: 110 µg/mL (≈ 361 µM)
MIC [3]: > 650 µg/mL

CCCCCCCCOCC(N)=O
MIC [1]: > 25 µg/mL

CC(C)(C)c1cc2c(OCCOCCOCCOCCOCCOCCO)c(c1)Cc1cc(C(C)(C)C)cc(c1OCCOCCOCCOCCOCCOCCO)Cc1cc(C(C)(C)C)cc(c1OCCOCCOCCOCCOCCOCCO)Cc1cc(C(C)(C)C)cc(c1OCCOCCOCCOCCOCCOCCO)Cc1cc(C(C)(C)C)cc(c1OCCOCCOCCOCCOCCOCCO)Cc1cc(C(C)(C)C)cc(c1OCCOCCOCCOCCOCCOCCO)C2
Activity [4]: 80 - 100%

O.O.OC[C@H]1O[C@@H](n2cnc3c(-c4cccs4)ncnc32)[C@H](O)[C@@H]1O
MIC [5]: 4 µM

CC(=O)Nc1ccc(S(=O)(=O)c2ccc(NC(C)=O)c(Cl)c2)cc1
MIC [1]: > 25 µg/mL

CCCCCCCCCCSCCC(N)=O
MIC [1]: 25 µg/mL (≈ 102 µM)

CCCCCCCCCCCCOc1c2cc(S(=O)(=O)O)cc1Cc1cc(S(=O)(=O)O)cc(c1OCCCCCCCCCCCC)Cc1cc(S(=O)(=O)O)cc(c1OCCCCCCCCCCCC)Cc1cc(S(=O)(=O)O)cc(c1OCCCCCCCCCCCC)Cc1cc(S(=O)(=O)O)cc(c1OCCCCCCCCCCCC)Cc1cc(S(=O)(=O)O)cc(c1OCCCCCCCCCCCC)Cc1cc(S(=O)(=O)O)cc(c1OCCCCCCCCCCCC)Cc1cc(S(=O)(=O)O)cc(c1O)C2
Activity [4]: 50 - 80%

CCCCCCCCCCS(=O)(=O)CCC(N)=O
MIC [1]: > 25 µg/mL

C/C=C/C/C=C/CCC(=O)[C@H]1O[C@H]1C(N)=O [CERULENIN]
MIC [1]: 0.5 to 1.5 µg/mL (≈ 2.24 to 6.72 µM)

OCCOCCOCCOCCOCCOCCOc1c2cc(-c3ccccc3)cc1Cc1cc(-c3ccccc3)cc(c1OCCOCCOCCOCCOCCOCCO)Cc1cc(-c3ccccc3)cc(c1OCCOCCOCCOCCOCCOCCO)Cc1cc(-c3ccccc3)cc(c1OCCOCCOCCOCCOCCOCCO)Cc1cc(-c3ccccc3)cc(c1OCCOCCOCCOCCOCCOCCO)Cc1cc(-c3ccccc3)cc(c1OCCOCCOCCOCCOCCOCCO)Cc1cc(-c3ccccc3)cc(c1OCCOCCOCCOCCOCCOCCO)C2
Activity [4]: 20 - 50%

CCCCCCCCCC[S+]([O-])CCC(N)=O (stereo unspecified)
MIC [1]: 6.25 µg/mL (≈ 23.9 µM)

Oc1c2cc(-c3ccccc3)cc1Cc1cc(-c3ccccc3)cc(c1O)Cc1cc(-c3ccccc3)cc(c1O)Cc1cc(-c3ccccc3)cc(c1O)Cc1cc(-c3ccccc3)cc(c1O)Cc1cc(-c3ccccc3)cc(c1O)Cc1cc(-c3ccccc3)cc(c1O)C2
Activity [4]: 20 - 50%

Nc1ccc(S(=O)(=O)c2ccccc2)cc1
MIC [2]: 1290 µg/mL (≈ 5520 µM)
MIC [3]: > 2580 µg/mL

Nc1ccc(S(=O)(=O)c2ccc(Cl)cc2)cc1
MIC [2]: 432 µg/mL (≈ 1610 µM)
MIC [3]: > 600 µg/mL

Nc1ccc(S(=O)(=O)c2ccc(NCC(=O)O)cc2)cc1 [ACEDIASULFONE]
MIC [2]: 261 µg/mL (≈ 853 µM)
MIC [3]: > 2200 µg/mL

CCCCCCCCS(=O)(=O)CC(=O)OC
MIC [1]: > 25 µg/mL

CC(C)(C)c1cc2c(O)c(c1)Cc1cc(C(C)(C)C)cc(c1O)Cc1cc(C(C)(C)C)cc(c1O)Cc1cc(C(C)(C)C)cc(c1O)Cc1cc(C(C)(C)C)cc(c1O)Cc1cc(C(C)(C)C)cc(c1O)C2
Activity [4]: inactive

CC(=O)OC[C@H]1O[C@@H](n2cnc3c(Cl)ncnc32)[C@H](OC(C)=O)[C@@H]1OC(C)=O
inhibition at 6.25 µg/mL [6]: 4%

CCCCCCCCS(=O)(=O)NC(N)=O
MIC [1]: > 25 µg/mL

Nc1ccc(S(=O)(=O)c2ccc(NC=O)cc2)cc1
MIC [2]: 120 µg/mL (≈ 434 µM)
MIC [3]: > 400 µg/mL

COCCOCCOCCOc1c2cc(C(C)(C)C)cc1Cc1cc(C(C)(C)C)cc(c1OCCOCCOCCOC)Cc1cc(C(C)(C)C)cc(c1OCCOCCOCCOC)Cc1cc(C(C)(C)C)cc(c1OCCOCCOCCOC)Cc1cc(C(C)(C)C)cc(c1OCCOCCOCCOC)Cc1cc(C(C)(C)C)cc(c1OCCOCCOCCOC)Cc1cc(C(C)(C)C)cc(c1OCCOCCOCCOC)Cc1cc(C(C)(C)C)cc(c1OCCOCCOCCOC)C2
Activity [4]: 80 - 100%

CC(C)CCCC(C)CCS(=O)(=O)CC(N)=O (stereo unspecified)
MIC [1]: 6.25 µg/mL (≈ 23.7 µM)

OC[C@H]1O[C@@H](n2nnc3c(-c4cccs4)ncnc32)[C@H](O)[C@@H]1O
MIC ([5]; Mycolicibacterium smegmatis, ATCC 607, read-out: MIC): 20 µM (≈ 6.71 µg/mL)

C.CCCCCCCCC[S+]([O-])CC(N)=O (racemic)
MIC [1]: 25 µg/mL

OCCOCCOCCOCCOCCOCCOCCOCCOCCOCCOCCOCCOc1c2cc(-c3ccccc3)cc1Cc1cc(-c3ccccc3)cc(c1OCCOCCOCCOCCOCCOCCOCCOCCOCCOCCOCCOCCO)Cc1cc(-c3ccccc3)cc(c1OCCOCCOCCOCCOCCOCCOCCOCCOCCOCCOCCOCCO)Cc1cc(-c3ccccc3)cc(c1OCCOCCOCCOCCOCCOCCOCCOCCOCCOCCOCCOCCO)Cc1cc(-c3ccccc3)cc(c1OCCOCCOCCOCCOCCOCCOCCOCCOCCOCCOCCOCCO)Cc1cc(-c3ccccc3)cc(c1OCCOCCOCCOCCOCCOCCOCCOCCOCCOCCOCCOCCO)Cc1cc(-c3ccccc3)cc(c1OCCOCCOCCOCCOCCOCCOCCOCCOCCOCCOCCOCCO)C2
Activity [4]: 80 - 100%

Nc1ccc(S(=O)(=O)c2ccc(NCCCO)cc2)cc1
MIC [2]: 19.6 µg/mL (≈ 64 µM)
MIC [3]: > 2400 µg/mL

CCCNc1ccc(S(=O)(=O)c2ccc(N)cc2)cc1
MIC [2]: 34.4 µg/mL (≈ 118 µM)
MIC [3]: > 1200 µg/mL

Cl.Cl.OC[C@H]1O[C@@H](n2cnc3c(-c4cccs4)ncnc32)[C@H](O)[C@@H]1O
MIC [5]: 0.7 µM

NC(=O)CS(=O)(=O)CCCCCCc1ccccc1
MIC [1]: > 25 µg/mL

NC(=O)CS(=O)(=O)CCCCCc1ccccc1
MIC [1]: 12.5 to 25 µg/mL (≈ 46.4 to 92.8 µM)

CCCCCCCCC[S@@+]([O-])CC(=O)OC
MIC [1]: > 25 µg/mL

CCCCCCCCC[S@+]([O-])CC(=O)OC
MIC [1]: > 25 µg/mL

CC(C)(C)c1cc2c(O)c(c1)Cc1cc(C(C)(C)C)cc(c1O)Cc1cc(C(C)(C)C)cc(c1O)Cc1cc(C(C)(C)C)cc(c1O)Cc1cc(C(C)(C)C)cc(c1O)Cc1cc(C(C)(C)C)cc(c1O)Cc1cc(C(C)(C)C)cc(c1O)Cc1cc(C(C)(C)C)cc(c1O)C2
Activity [4]: 20 - 50%

CCCCCCCC[S+]([O-])CC(=O)OC (stereo unspecified)
MIC [1]: 12.5 µg/mL (≈ 53.3 µM)

CCCCCCCCC[S+]([O-])CC(=O)OC (stereo unspecified)
MIC [1]: 6.25 µg/mL (≈ 25.2 µM)

CCCCCCNc1ccc(S(=O)(=O)c2ccc(N)cc2)cc1
MIC [2]: > 360 µg/mL
MIC [3]: > 400 µg/mL

c1coc(-c2[nH]cnc3ncnc2-3)c1
inhibition at 6.25 µg/mL [6]: 6%
